# Source: patent publication US20240368127A1, “HSD17B13 INHIBITORS AND USES THEREOF” (FL2022-001, Inc., priority 2021, published 2024)
# Biological target: T1, Recombinant human HSD17B13 enzyme (Homo sapiens, UniProt Q7Z5P4)
# T1 sequence (Q7Z5P4 20-300): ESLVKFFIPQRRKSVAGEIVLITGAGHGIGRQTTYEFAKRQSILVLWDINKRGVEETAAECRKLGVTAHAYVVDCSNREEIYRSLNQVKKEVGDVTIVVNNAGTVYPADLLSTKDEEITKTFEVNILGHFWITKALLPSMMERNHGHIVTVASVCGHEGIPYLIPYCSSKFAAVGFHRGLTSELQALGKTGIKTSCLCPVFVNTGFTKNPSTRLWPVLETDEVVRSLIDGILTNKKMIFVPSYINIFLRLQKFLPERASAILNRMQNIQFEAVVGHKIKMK
# Experiment: HSD17b13 NAD(P)H-Glo biochemical assay
# Settings: 50 μM estradiol, 1 mM NAD+, 37° C. for 3 hours; read-out: HSD17β13 IC50
# Experimental: Example B-1: HSD17b13 NAD (P) H-Glo Biochemical Assay
# Recombinant human HSD17B13 enzyme. Substrate: estradiol (Sigma β-Estradiol E8875), 100 mM in DMSO. Cofactor: NAD+ Grade I free acid (Sigma 10127965001), 20 mM in H2O. Assay buffer final concentration: 20 mM Tris pH7.4 with 0.002% Tween-20 and 0.02% BSA. Assay performed in 384 well solid bottom plate (Corning 3570). Enzymatic activity detected by NAD (P) H-Glo™ Detection System (Promega G9062).
# Inhibitor compounds were serially diluted in DMSO and then further diluted in assay buffer to a 10× concentration consisting of 1% DMSO.
# HSD17b13 enzyme was diluted in 1× assay buffer to the desired enzyme concentration based on the specific activity of the enzyme lot. 20 μL of diluted enzyme was added to each well along with 2.5 μL of 10× inhibitor solution. Assay plate was incubated at RT for 20 minutes, and then 2.5 μL of a 10× substrate/cofactor mix was added to each well for a final concentration of 50 μM estradiol and 1 mM NAD+. Assay plate was incubated at 37° C. for 3 hours. NAD (P) H-Glo™ Detection System reagents were prepared according to manufacturer's specifications, and 25 μL was added to each well. After incubating for 1 hour at RT, luminescence was measured.
row,IC50,Compound
1,≤ 100 nM,"Cn1nc(-c2cc(C(F)(F)F)c(F)c(O)c2F)c2cnc(N3CCN(S(C)(=O)=O)C[C@@H]3CC3CCCCC3)nc21 (single isomer, unassigned) [Compound 15.01]"
2,≤ 100 nM,"Cn1nc(-c2cc(C(F)(F)F)c(F)c(O)c2F)c2cnc(N3CCOC[C@H]3CC3CCCCC3)nc21 (single isomer, unassigned) [Compound 15.04]"
3,≤ 100 nM,"Cn1nc(-c2cc(C(F)(F)F)c(F)c(O)c2F)c2cnc(N3CC[C@H]3Cc3ccccc3)nc21 (single isomer, unassigned) [Compound 15.10]"
4,≤ 100 nM,"CS(=O)(=O)N1CCN(c2ccc(-n3nnc4cc(F)c(O)c(F)c43)cc2)[C@H](Cc2ccccc2)C1 [Compound 1, (R)-1-(4-(2-Benzyl-4-(methylsulfonyl)piperazin-1-yl)phenyl)-5,7-difluoro-1H-benzo[d][1,2,3]triazol-6-ol]"
5,100 to 1000 nM,"CS(=O)(=O)N1CCN(c2ccc(-n3nnc4cc(F)c(O)c(F)c43)cc2)[C@@H](Cc2ccccc2)C1 [Compound 1.01, (S)-1-(4-(2-Benzyl-4-(methylsulfonyl)piperazin-1-yl)phenyl)-5,7-difluoro-1H-benzo[d][1,2,3]triazol-6-ol]"
6,≤ 100 nM,"CS(=O)(=O)N1CCN(c2ccc(-n3nnc4cc(F)c(O)c(F)c43)cc2)C[C@@H]1Cc1ccccc1 [Compound 1.02, (S)-1-(4-(3-Benzyl-4-(methylsulfonyl)piperazin-1-yl)phenyl)-5,7-difluoro-1H-benzo[d][1,2,3]triazol-6-ol]"
7,≤ 100 nM,"CS(=O)(=O)N1CCN(c2ccc(-n3nnc4cc(F)c(O)c(F)c43)cc2)C[C@H]1Cc1ccccc1 [Compound 1.03, (R)-1-(4-(3-Benzyl-4-(methylsulfonyl)piperazin-1-yl)phenyl)-5,7-difluoro-1H-benzo[d][1,2,3]triazol-6-ol]"
8,100 to 1000 nM,"Oc1c(F)cc2nnn(-c3ccc(N4CCO[C@@H](Cc5ccccc5)C4)cc3)c2c1F [Compound 1.04, (S)-1-(4-(2-Benzylmorpholino)phenyl)-5,7-difluoro-1H-benzo[d][1,2,3]triazol-6-ol]"
9,100 to 1000 nM,"Oc1c(F)cc2nnn(-c3ccc(N4CCOC[C@H]4Cc4ccccc4)cc3)c2c1F [Compound 1.05, (R)-1-(4-(3-Benzylmorpholino)phenyl)-5,7-difluoro-1H-benzo[d][1,2,3]triazol-6-ol]"
10,≤ 100 nM,"Oc1c(F)cc2nnn(-c3ccc(N4CC[C@@H](Cc5ccccc5)C4)cc3)c2c1F [Compound 1.06, (R)-1-(4-(3-Benzylpyrrolidin-1-yl)phenyl)-5,7-difluoro-1H-benzo[d][1,2,3]triazol-6-ol]"
11,≤ 100 nM,"Oc1c(F)cc2nnn(-c3ccc(N4CC[C@H](Cc5ccccc5)C4)cc3)c2c1F [Compound 1.07, (S)-1-(4-(3-Benzylpyrrolidin-1-yl)phenyl)-5,7-difluoro-1H-benzo[d][1,2,3]triazol-6-ol]"
12,≤ 100 nM,"Oc1c(F)cc2nnn(-c3ccc(N4CCC(Cc5ccccc5)CC4)cc3)c2c1F [Compound 1.08, 1-(4-(4-Benzylpiperidin-1-yl)phenyl)-5,7-difluoro-1H-benzo[d][1,2,3]triazol-6-ol]"
13,≤ 100 nM,"Oc1c(F)cc2nnn(-c3ccc(N4CCCC(Cc5ccccc5)CC4)cc3)c2c1F (centres unmarked) [Compound 1.09, 1-(4-(4-Benzylazepan-1-yl)phenyl)-5,7-difluoro-1H-benzo[d][1,2,3]triazol-6-ol]"
14,≤ 100 nM,"CC1(Cc2ccccc2)CCN(c2ccc(-n3nnc4cc(F)c(O)c(F)c43)cc2)CC1 [Compound 1.10, 1-(4-(4-Benzyl-4-methylpiperidin-1-yl)phenyl)-5,7-difluoro-1H-benzo[d][1,2,3]triazol-6-ol]"
15,≤ 100 nM,"Cc1nn(-c2cc(C(F)(F)F)c(F)c(O)c2F)c2cnc(N3CCN(S(C)(=O)=O)C[C@H]3Cc3ccccc3)nc12 [Compound 2, (R)-3-(5-(2-Benzyl-4-(methylsulfonyl)piperazin-1-yl)-3-methyl-1H-pyrazolo[4,3-d]pyrimidin-1-yl)-2,6-difluoro-5-(trifluoromethyl)phenol]"
16,≤ 100 nM,"Cc1nn(-c2cc(C(F)(F)F)c(F)c(O)c2F)c2cnc(N3CCOCC3Cc3ccccc3)cc12 (centres unmarked) [Compound 2.01, 3-(5-(3-Benzylmorpholino)-3-methyl-1H-pyrazolo[3,4-c]pyridin-1-yl)-2,6-difluoro-5-(trifluoromethyl)phenol]"
17,≤ 100 nM,"Cc1nn(-c2cc(C(F)(F)F)c(F)c(O)c2F)c2cnc(N3CCN(S(C)(=O)=O)C[C@H]3Cc3ccccc3)cc12 [Compound 2.02, (R)-3-(5-(2-Benzyl-4-(methylsulfonyl)piperazin-1-yl)-3-methyl-1H-pyrazolo[3,4-c]pyridin-1-yl)-2,6-difluoro-5-(trifluoromethyl)phenol]"
18,100 to 1000 nM,"Cc1nn(-c2cc(C(F)(F)F)c(F)c(O)c2F)c2cnc(N3CCN(S(C)(=O)=O)C[C@@H]3Cc3ccccc3)cc12 [Compound 2.03, (S)-3-(5-(2-Benzyl-4-(methylsulfonyl)piperazin-1-yl)-3-methyl-1H-pyrazolo[3,4-c]pyridin-1-yl)-2,6-difluoro-5-(trifluoromethyl)phenol]"
19,≤ 100 nM,"Cc1nn(-c2cc(C(F)(F)F)c(F)c(O)c2F)c2cnc(N3CCOC(Cc4ccccc4)C3)cc12 (centres unmarked) [Compound 2.04, 3-(5-(2-Benzylmorpholino)-3-methyl-1H-pyrazolo[3,4-c]pyridin-1-yl)-2,6-difluoro-5-(trifluoromethyl)phenol]"
20,100 to 1000 nM,"Cc1nn(-c2cc(C(F)(F)F)cc(O)c2F)c2cnc(N3CCOC(Cc4ccccc4)C3)cc12 (centres unmarked) [Compound 2.05, 3-(5-(2-Benzylmorpholino)-3-methyl-1H-pyrazolo[3,4-c]pyridin-1-yl)-2-fluoro-5-(trifluoromethyl)phenol]"
21,≤ 100 nM,"CS(=O)(=O)N1CCN(c2ccc3c(c2)c(Cl)nn3-c2cc(C(F)(F)F)c(F)c(O)c2F)[C@H](Cc2ccccc2)C1 [Compound 2.06, (R)-3-(5-(2-Benzyl-4-(methylsulfonyl)piperazin-1-yl)-3-chloro-1H-indazol-1-yl)-2,6-difluoro-5-(trifluoromethyl)phenol]"
22,≤ 100 nM,"Cc1nn(-c2cc(C(F)(F)F)c(F)c(O)c2F)c2cnc(N3CCN(S(C)(=O)=O)[C@H](Cc4ccccc4)C3)cc12 [Compound 2.07, (R)-3-(5-(3-Benzyl-4-(methylsulfonyl)piperazin-1-yl)-3-methyl-1H-pyrazolo[3,4-c]pyridin-1-yl)-2,6-difluoro-5-(trifluoromethyl)phenol]"
23,≤ 100 nM,CC(=O)c1nn(-c2cc(C(F)(F)F)c(F)c(O)c2F)c2ccc(N3CCN(S(C)(=O)=O)C[C@H]3Cc3ccccc3)cc12 [Compound 2.08]
24,≤ 100 nM,"CS(=O)(=O)N1CCN(c2ncc3c(cnn3-c3cc(C(F)(F)F)c(F)c(O)c3F)n2)[C@H](Cc2ccccc2)C1 [Compound 2.09, (R)-3-(5-(2-Benzyl-4-(methylsulfonyl)piperazin-1-yl)-1H-pyrazolo[4,3-d]pyrimidin-1-yl)-2,6-difluoro-5-(trifluoromethyl)phenol]"
25,≤ 100 nM,"Cc1nn(-c2cc(C(F)(F)F)c(F)c(O)c2F)c2cnc(N3CCN(S(C)(=O)=O)[C@@H](Cc4ccccc4)C3)cc12 [Compound 2.10, (S)-3-(5-(3-Benzyl-4-(methylsulfonyl)piperazin-1-yl)-3-methyl-1H-pyrazolo[3,4-c]pyridin-1-yl)-2,6-difluoro-5-(trifluoromethyl)phenol]"
26,≤ 100 nM,"Cc1nn(-c2cc(C(F)(F)F)c(Cl)c(O)c2F)c2cnc(N3CCN(S(C)(=O)=O)C[C@H]3Cc3ccccc3)cc12 [Compound 2.11, (R)-3-(5-(2-Benzyl-4-(methylsulfonyl)piperazin-1-yl)-3-methyl-1H-pyrazolo[3,4-c]pyridin-1-yl)-6-chloro-2-fluoro-5-(trifluoromethyl)phenol]"
27,≤ 100 nM,"CS(=O)(=O)N1CCN(c2ccc3c(c2)c(N)nn3-c2cc(C(F)(F)F)c(F)c(O)c2F)[C@H](Cc2ccccc2)C1 [Compound 2.12, (R)-3-(3-Amino-5-(2-benzyl-4-(methylsulfonyl)piperazin-1-yl)-1H-indazol-1-yl)-2,6-difluoro-5-(trifluoromethyl)phenol]"
28,≤ 100 nM,"Cc1nn(-c2cc(C(F)(F)F)c(F)c(O)c2F)c2ccc(N3CCN(S(C)(=O)=O)C[C@H]3Cc3ccccc3)cc12 [Compound 2.13, (R)-3-(5-(2-Benzyl-4-(methylsulfonyl)piperazin-1-yl)-3-methyl-1H-indazol-1-yl)-2,6-difluoro-5-(trifluoromethyl)phenol]"
29,≤ 100 nM,"CNc1nn(-c2cc(C(F)(F)F)c(F)c(O)c2F)c2ccc(N3CCN(S(C)(=O)=O)C[C@H]3Cc3ccccc3)cc12 [Compound 2.14, (R)-3-(5-(2-Benzyl-4-(methylsulfonyl)piperazin-1-yl)-3-(methylamino)-1H-indazol-1-yl)-2,6-difluoro-5-(trifluoromethyl)phenol]"
